Experimental findings from patent US20180000768A1, “INTESTINAL FXR AGONISM ENHANCES GLP-1 SIGNALING TO RESTORE PANCREATIC BETA CELL FUNCTIONS” (Salk Institute for Biological Studies, priority 2015, published 2018) are described below.

One may read the Papp B→A as the apparent permeability from the basolateral to the apical side of a cell layer. A word on the Papp A→B: it is how fast a substance crosses the layer from the apical side.

The nature of series [1]: in vitro permeability in Caco2 cells. The note with it: human; for Papp A→B at 2 h, 10 μM: Caco2 cells, assay conc. 10 μM. (Caco-2 cells form a polarised layer with tight junctions and transporters.)
In series [2] the test system is human intestinal epithelial Caco2 cells. In words: in vitro permeability in Caco2 cells. The note with it: Caco2 cells, 2 hour incubation.
Series [3] relates to Leptin-deficient ob/ob mice. As to the kind of experiment: metabolic phenotype and glucose homeostasis of treated ob/ob mice. It counts as in vivo, mouse. The note with it: Fex 100 mg/kg/day, reduced treatment duration (2 weeks).
A further series has as its system isolated islets. As to the kind of experiment: gene expression after direct ex vivo treatment of isolated islets. Format: cell-based, mouse. The note with it: 24 hours ex vivo, XL335 1 μM, Fex 1 μM. As to the method: Leptin-deficient ob/ob mice were treated daily with vehicle, Fex, or the analogue Fex-D (50 mg/kg) via P.O. for 14 days (A) Chemical structures of fexaramine and Fex-D (B) Schematic of the experimental design (C) Serum glucose levels (D) Glucose tolerance test (E) Insulin secretion in vivo (F) GLP-1 secretion in vivo (G) Heatmap showing hierarchal clustering of gene expression changes in islet induced by Fex (100 mg/kg, 4 wks) and FexD (50 mg/kg, 2 weeks) treatment in ob/ob mice (in vivo); by treatment of islets with XL335 (1 μM), Fex (1 μM), mFgf15 and hFgf19 (24 hours ex vivo); and mFgf15 (0.15 mg/kg, 2 weeks) and INT777 (Tgr5, 60 mg/kg, 4 weeks) treatment of ob/ob mice (in vivo). Gene expression was measured by RNA-Seq and changes are expressed as Z-score. (H) Ven diagram of changes in gene expression in pancreatic islets induced by FEX (100 mg/kg for 5 weeks) and FEX-D (50 mg/kg for 14 days). […] Data represent the mean±STD. Statistical analysis was performed with the Student's t test. *p<0.05, **p<0.01.
Next, primary islets were isolated from mice treated by Fex-D to compare gene expression changes.

A further series concerns Human intestinal L cells. In words: maintenance of ATP levels under bethanechol chloride. It counts as cell-based. Particulars: L cells incubated with bethanechol chloride; DMSO-treated L cells 67%. The method, then: To further examine how this increase in respiratory capacity affects L cell bioenergetics, the maintenance of ATP levels under energetic demanding conditions was evaluated. Human intestinal L cells treated with DMSO or Fex were incubated with the muscarinic receptor agonist bethanechol chloride and residual ATP levels determined. […] Fex-treated L cells were able to maintain 83% of the initial ATP abundance whereas DMSO-treated L cells were able to maintain 67% (FIG. 7D). Thus, Fex enhances overall mitochondrial bioenergetics in enteroendocrinal L cells.

A further series relates to ob/ob mice. In words: gene expression (RNA-Seq, QPCR) in tissues of treated ob/ob mice. It counts as in vivo, mouse. The method, then:
Total RNA was isolated from cell pellets treated with RNAlater using the RNA mini kit (Qiagen) and treated with DNaseI (Qiagen) for 30 minutes at room temperature. Sequencing libraries were prepared from 100-500 ng total RNA using the TruSeq RNA Sample Preparation Kit v2 (Illumina) according to the manufacturer's protocol. Briefly, mRNA was purified, fragmented, and used for first-, then second-strand cDNA synthesis followed by adenylation of 3′ ends. Samples were ligated to unique adapters and subjected to PCR amplification. Mulitplexed libraries were then validated using the 2100 BioAnalyzer (Agilent), normalized, and pooled for sequencing. RNA-Seq libraries prepared from two biological replicates for each experimental condition were sequenced on the Illumina HiSeq 2500 using bar-coded multiplexing and a 100 bp read length.
Image analysis and base calling were performed with Illumina CASAVA-1.8.2. This yielded a median of 29.9M usable reads per sample. Short read sequences were mapped to a UCSC mm9 reference sequence using the RNA-seq aligner STAR. Known splice junctions from mm9 were supplied to the aligner and de novo junction discovery was also permitted. Differential gene expression analysis, statistical testing and annotation were performed using Cuffdiff 2. Transcript expression was calculated as gene-level relative abundance in fragments per kilobase of exon model per million mapped fragments and employed correction for transcript abundance bias. RNA-Seq results for genes of interest were also explored visually using the UCSC Genome Browser.

The test system of another series is enteroendocrinal L cells. As to the kind of experiment: Gene expression analysis (QPCR) in enteroendocrinal L cells. Format: cell-based, human.

“Also recorded” adds a separate entry of the source. A value given as a limit tells only on which side of the number the result lay.

In series [1] (Caco-2), `COC(=O)/C=C/c1cccc(N(Cc2ccc(-c3ccc(N(C)C)cc3)cc2)C(=O)C2CCCCC2)c1` [Fexaramine] registered an apparent permeability from basolateral to apical (Papp B→A) at 2 h, 10 μM of 0.77 ×10⁻⁶ cm/s and a recovery at 2 h, 10 μM of 150%. The compound further came in with a Papp A→B at 2 h, 10 μM in series [1] (Caco-2, A-B Permeability Ranking) of less than 1 ×10⁻⁶ cm/s. In addition, in series [1] (Caco-2, Mean Papp, A-B, 2 hour incubation), the Papp A→B at 2 h, 10 μM amounted to 0.597 ×10⁻⁶ cm/s. Further, the in vitro permeability entry in series [2] was “low”. In series [3], the fasting glucose levels result was “little effect”. The “transcriptional changes seen in islets in vivo with Fex and Fex-D” value with isolated islets is reported as “not observed”. The “residual ATP, % of the initial ATP abundance maintained” value in the series with Human intestinal L cells is on record as 83%. In addition, in the series with ob/ob mice (Fex 100 mg/kg daily P.O., 5 weeks, ileum), the “FXR target genes SHP and FGF15 in the intestine” value is recorded as “markedly upregulated”. In addition, in the series with ob/ob mice (Fex 100 mg/kg for 5 weeks, listed as Fex), the “expression of the GLP-1 receptor in islets” value is listed as “increased expression; also recorded: significantly increased”. Besides, in the series with enteroendocrinal L cells, the DPP4 expression entry is “no effect” and the proglucagon expression result is reported as “no effect”. Also, in the series with enteroendocrinal L cells (listed as Fex), the “SHP expression (FXR target gene)” value was “induced; also recorded: induction”.
